Assay results reported in patent publication US12245593B2, “Agricultural products and related methods” (priority 2017, dated 2025).

System: glyphosate-tolerant Palmer Amaranth (Amaranthus palmeri)
Assay type: in vivo
Conditions: glyphosate 1.27 kg/ha; Composition C 1 liter/ha; two weeks after spraying
Protocol: Various plant treatment products comprising (i) select plant treatment components (e.g., pesticides, fungicides, herbicides) and (ii) one or more microbial fermentation product formulations (Composition A, B, C, and combinations) were tested on (1) rice (Oryza sativa) infected by Sheath Blight Rhizoctonia solani, (2) soybean (Glycine max) infected by Soybean Rust (Phakopsora pachyrhizi), (3) wheat (Triticum aestivum) infected by Stripe Rust (Puccinia striiformis), (4) corn (Zea mays) infected by Gray Leaf Spot (Cercospora zeae-maydis), (5) creeping bentgrass (Agrostis stolonifera) infected by dollar spot (Sclerotina homoeocarpa), and (6) glyphosate-tolerant Palmer Amaranth (Amaranthus palmeri) weed, and compared to controls, including plant treatment component(s) alone.
To test the effects of the inventive plant treatment product on weed survival in herbicide-tolerant Palmer Amaranth (Amaranthus palmeri) plants, the plant treatment product (Composition C+herbicide) or herbicide component (alone) were applied to weeds, in greenhouse conditions. […] The measurements of dry shoot mass and dry root mass were taken two weeks after spraying. […] Thus, the inventive plant treatment product can enhance herbicide susceptibility in herbicide-tolerant plants.

O=C(O)CNCP(=O)(O)O [Herbicide, glyphosate]
Palmer Amaranth root dry weight per plant in greenhouse conditions: 0.768
Palmer Amaranth root dry weight, change versus Untreated Control: −40.9%
Palmer Amaranth root fresh weight per plant in greenhouse conditions: 4.70
Palmer Amaranth root fresh weight, change versus Untreated Control: −51.3%
Palmer Amaranth shoot dry weight per plant in greenhouse conditions: 5.31
Palmer Amaranth shoot dry weight, change versus Untreated Control: −7.01%
Palmer Amaranth shoot fresh weight per plant in greenhouse conditions: 15.0
Palmer Amaranth shoot fresh weight, change versus Untreated Control: −20.6%
